Laboratory results as given in patent US20240366586A1, “METHODS AND AGENTS FOR MODULATING THE IMMUNE RESPONSE” (The Regents of the University of California, priority 2021, published 2024).

Tests used:
Il12b [1] = assay: Dual-fluorescence reporter macrophage cell line screen, lipopolysaccharide-stimulated: chromatinized Il12b-eGFP versus minimal Il12b-DsRed reporter; format: cell-based; settings: lipopolysaccharide-stimulated dual-fluorescence reporter macrophage cell line
Source text: We hypothesized that molecules that inhibit the “chromatinized” Il12b reporter but not the “minimal” Il12b reporter would offer a greater degree of Il12b inhibition selectivity.
We generated a dual-fluorescence reporter macrophage cell line having both a [Il12b]-[eGFP] chromatin-based construct and a [Il12b]-[DSred] plasmid vector. FIG. 3. We then stimulated an […] response in the cell line using lipopolysaccharide, an activator of Il12b expression, and tested a library of over 60,000 known and unknown (i.e., undescribed in the literature) small-molecule compounds.
Additional compounds in Formulas (I)-(IV) were screened following the same procedure as described above, with eGFP fluorescence as a readout for inhibition of IL12b.

vitiligo = assay: Treatment example: patient with vitiligo; format: in vivo, human; settings: topical formulation
Procedure: A patient with vitiligo is treated with a topical formulation of 11-(5-hydroxy-2-nitrobenzyl)-7,11-diazatricyclo[7.3.1.0˜2,7˜]trideca-2,4-dien-6-one (Compound III-1).

Il12b [2] = assay: RNA-Seq / ATAC-Seq of lipopolysaccharide-induced genes in treated macrophages; format: cell-based; settings: for rank of Il12b among the most strongly inhibited lipopolysaccharide-induced genes: genes with RPKM>4 and FC>10, ranked by fold change (Max RPKM with/without compound)
Source text: Our screening experiment identified as compounds that […]. Using ATAC-Seq and RNA-Seq analyses, we confirmed that the screen indeed identified hits that work by affecting chromatin, and confirmed that β adrenergic agonists, (and in particular β2 adrenergic agonists) are indeed exquisitely selective inhibitors of Il12b gene expression.
(§1) The inhibition of Il12b by β agonists occurs upon stimulation of macrophages with other inflammatory stimuli, including CpG DNA, double stranded RNA, and imiquimod. We confirmed that the cAMP/PKA pathway, but not the exchange factor directly activated by cAMP (EPAC) pathway, was largely responsible for mediating the Il12b suppression by 0-agonists.
FIG. 7B depicts a fold change box plot in samples treated with UK17 (3-fluoro-N′-[(5-nitro-2-thienyl)methylene]benzohydrazide (CID #6895129)), classifying lipopolysaccharide-induced genes by gene-regulation cluster as previously described in Tong A. et al., A Stringent Systems Approach Uncovers Gene-Specific Mechanisms Regulating Inflammation, Cell 165 165-179 (2016). Box plots indicate the distribution of fold change values for each cluster. Red lines are drawn at 1 and −1, indicating a 2-fold up or down-regulation of genes. Il12b is labeled in red.

chronic eczema = assay: Treatment example: patient with chronic eczema; format: in vivo, human; settings: topical formulation
alopecia = assay: Treatment example: patient with alopecia; format: in vivo, human; settings: topical formulation also comprising apremilast
Behçet's disease = assay: Treatment example: patient with Behçet's disease; format: in vivo, human; settings: topical formulation
[3] = system: imiquimod-induced psoriasiform dermatitis; assay: Imiquimod-induced psoriasiform dermatitis model, PASI clinical scoring; format: in vivo; settings: WT mice, topical imiquimod, daily intraperitoneal injection, vs saline/PBS
Source text: FIG. 16 depicts histology of WT mice or b1/b2 KO mice 5 days after topically applying imiquimod to their skin. Histology confirms greater thickening and scale of the skin in b1/b2 KO mice.
FIG. 19 depicts WT mice given intraperitoneal injection of the b2 selective adrenergic agonist clenbuterol or vehicle control (saline) daily in mice given topical imiquimod to induce psoriasiform dermatitis.
FIG. 20 depicts the PASI clinical scoring PBS-treated WT mice versus clenbuterol-treated WT mice.

psoriasis = assay: Treatment example: patient with psoriasis; format: in vivo, human; settings: topical formulation
Procedure: A patient with psoriasis is treated with a topical formulation of N-(2-furylmethyl)-N-[(6-methoxy-2-oxo-1H-quinolin-3-yl)methyl]-4-methyl-benzamide (Compound I-1).

lichen planus = assay: Treatment example: patient with lichen planus; format: in vivo, human; settings: combination with crisaborole, both administered topically
Procedure: A patient with lichen planus is treated with a combination of N-(2-furylmethyl)-N-[(6-methoxy-2-oxo-1H-quinolin-3-yl)methyl]-4-methyl-benzamide (Compound I-1) and crisaborole, both administered topically.

Il12b [4] = assay: Il12b expression in human macrophages treated with PGE2 (RNA-Seq, RPKM vs DMSO); format: cell-based
Source text: as §1
FIG. 10 depicts a heatmap of percent expression of RPKMs as a percent of the maximum RPKM within the DMSO sample for genes with RPKMs>3 and FC>10 in at least one DMSO timepoint. The heatmap represents that for the averaged samples for each gene between Donor 0 IL34 and Donor 0 MCSF. In the left heatmap, red indicates percent expression equal to or higher than 100%. DMSO and PGE2 samples are indicated as such for timepoints 0 hr, 1 hr, 2 hr, and 6 hr. […] Here, red represents a positive difference equal to or over 100%, indicating induction, and blue representing a negative difference equal to or less than −100%, indicating inhibition. (n=2).
FIG. 11 depicts log 2 of the fold change of RPKMS after PGE2-treatment and those after DMSO treatment are shown in this scatter plot for genes with RPKMs>3 and FC>10 in at least on DMSO timepoint and this graph represents the 6-hour timepoint. […]

In the case of `O=c1cccc2n1CC1CC2CN(Cc2cc(O)ccc2[N+](=O)[O-])C1` (stereo not drawn) [III-1, 11-(5-hydroxy-2-nitrobenzyl)-7,11-diazatricyclo[7.3.1.0˜2,7˜]trideca-2,4-dien-6-one], the “selective inhibition of the chromatinized Il12b reporter (eGFP) but not the minimal reporter (DsRed)” value (Il12b [1]) is reported as “selective inhibitors of chromatinized Il12b” and the clinical outcome (vitiligo) is reported as “Resolution of vitiligo”.
With `O=C(NN=Cc1ccc([N+](=O)[O-])s1)c1cccc(F)c1` [II-1, 3-fluoro-N′-[(5-nitro-2-thienyl)methylene]benzohydrazide] the “selective inhibition of the chromatinized Il12b reporter (eGFP) but not the minimal reporter (DsRed)” value (Il12b [1]) was “selective inhibitors of chromatinized Il12b”, the “selective inhibition of the chromatinized Il12b reporter (eGFP) but not the minimal reporter (DsRed)” value (Il12b [1]; listed as UK17) was “selective for inhibition of chromatinized Il12b” and the “rank of Il12b among the most strongly inhibited lipopolysaccharide-induced genes” value (Il12b [2]) was no more than 20. For the same compound, the clinical outcome (chronic eczema) was “Resolution of symptoms”.
`COc1ccc(Br)cc1/C=C/C(=O)c1ccc(OC)c(OC)c1` [IV-1, 3-(5-bromo-2-methoxyphenyl)-1-(3,4-dimethoxyphenyl)-2-propen-1-one] was tested, and the clinical outcome (alopecia) was “Resolution of alopecia”, the “selective inhibition of the chromatinized Il12b reporter (eGFP) but not the minimal reporter (DsRed)” value (Il12b [1]) was “selective inhibitors of chromatinized Il12b” and the “rank of Il12b among the most strongly inhibited lipopolysaccharide-induced genes” value (Il12b [2]) was no more than 20. For the same compound, the clinical outcome (Behçet's disease) was “Resolution of disease”.
For `CC(C)(C)NCC(O)c1cc(Cl)c(N)c(Cl)c1` (stereo not drawn) [clenbuterol], the PASI clinical score [3] was “reduction in score”.
In the case of `COc1ccc2[nH]c(=O)c(CN(Cc3ccco3)C(=O)c3ccc(C)cc3)cc2c1` [Compound I-1, N-(2-furylmethyl)-N-[(6-methoxy-2-oxo-1H-quinolin-3-yl)methyl]-4-methyl-benzamide], the clinical outcome (psoriasis) is reported as “Resolution of symptoms” and the clinical outcome (lichen planus) is reported as “Resolution of symptoms”.
In the case of `CCCCC[C@H](O)/C=C/[C@H]1[C@H](O)CC(=O)[C@@H]1C/C=C\CCCC(=O)O` [prostaglandin E2, reference compound], the “selective inhibition of Il12b gene expression” value (Il12b [2]; RNA-Seq and ATAC-Seq analyses, macrophages) is reported as “selectively inhibit IL12b expression” and the “selective inhibition of Il12b in human macrophages” value (Il12b [4]) is reported as “exquisitely selective inhibitor of Il12b”.
